Laboratory results published in patent US20100130408A1, “USE OF MODIFIED CYCLOSPORINS” (priority 2006, published 2010).

Experiments:
[1] = system: Balb/c spleen cells; test: Mixed Lymphocyte Reaction (MLR); format: cell-based, mice; details: percentage of the activity relative to Cyclosporin A
Description: A cyclosporin is considered to be non-immunosuppressive when it has an activity in the Mixed Lymphocyte Reaction (MLR) of no more than 5%, preferably no more than 2%, that of cyclosporin A. The Mixed Lymphocyte Reaction is described by T. Meo in “Immunological Methods”, L. Lefkovits and B. Peris, Eds., Academic Press, N.Y. pp. 227-239 (1979). Spleen cells (0.5×106) from Balb/c mice (female, 8-10 weeks) are co-incubated for 5 days with […] irradiated (2000 reds) or mitomycin C treated spleen cells from CBA mice (female, 8-10 weeks). The irradiated allogeneic cells induce a proliferative response in the Balb/c spleen cells which can be measured by labeled precursor incorporation into the DNA. […] The IC50 found for the test compound in the MLR is compared with that found for cyclosporin A in a parallel experiment. In addition, non-immunosuppressive cyclosporins lack the capacity of inhibiting CN and the downstream NF-AT pathway.

[2] = molecular target: T1, human recombinant cyclophilin (Homo sapiens, UniProt P62937); test: competitive ELISA cyclophilin binding test (Binding Ratio); details: log to the base 10 of IC50 test compound / IC50 cyclosporin A
Description: A cyclosporin is considered as binding to cyclophilin if it binds to human recombinant cyclophilin at least one fifth as well as does cyclosporin A in the competitive ELISA test described by Quesniaux in Eur. J. Immunol. 1987 17 1359-1365. In this test, the cyclosporin to be tested is added during the incubation of cyclophilin with coated BSA-cyclosporin A and the concentration required to give a 50% inhibition of the control reaction without competitor is calculated (IC50). The results are expressed as the Binding Ratio (BR), which is the log to the base 10 of the ratio of the IC50 of the test compound and the IC50 in a simultaneous test of cyclosporin A itself.

[3] = molecular target: T1, human recombinant cyclophilin; test: competitive ELISA, cyclophilin on coated BSA-cyclosporin A, reference cyclosporin A; details: scale: log10
[4] = system: HCV; details: Watashi et al., Hepatology (2003); cited from earlier work
[5] = system: HSCs; details: cited from earlier work

T1 sequence (P62937 whole entry): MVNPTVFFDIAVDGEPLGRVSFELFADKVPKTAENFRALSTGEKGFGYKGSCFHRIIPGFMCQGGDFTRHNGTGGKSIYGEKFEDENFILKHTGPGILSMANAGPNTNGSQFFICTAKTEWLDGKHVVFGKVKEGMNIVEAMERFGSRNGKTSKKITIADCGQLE

Compound | IR = Immunosuppressive Ratio [1] [%] | Binding Ratio (BR) [2] | Binding Ratio (BR) [3] | other results
[Ethyl-Val]^4-Ciclosporin | < 2 | 0 |  | 
[dihydro-MeBmt]^1-[y-hydroxy-MeLeu]^4-Ciclosporin | < 1 | 0.1 |  | 
[Melle]^4-Ciclosporin (peptide) |  |  | -0.2 | 
[dihydro-MeBmt]^1-[y-hydroxy-MeLeu]^4-Ciclosporin (peptide) |  |  | 0.1 | 
[y-hydroxy-MeLeu]^4-Ciclosporin (peptide) |  |  | 0.4 | 
[y-hydroxy-MeLeu]^4-Ciclosporin | < 1 | 0.4 |  | 
[MeAla]^6-Ciclosporin (peptide) |  |  | -0.4 | 
C=CC[C@@H]1/C=C(\C)C[C@H](C)C[C@H](OC)[C@H]2O[C@@](O)(C(=O)C(=O)N3CCCC[C@H]3C(=O)O[C@H](/C(C)=C/[C@@H]3CC[C@@H](O)[C@H](OC)C3)[C@H](C)[C@@H](O)CC1=O)[C@H](C)C[C@@H]2OC [tacrolimus] |  |  |  | replication of HCV in vitro [4]: did not show this effect; reduction of collagen production ([5]; 12.5 nM (10 ng/ml), previously reported in Nakamuta et al): does not significantly reduces collagen production; cell growth and collagen production in HSCs ([5]; previous evaluation of immunosuppressive drugs): did not have such effects
[y-hydroxy-MeLeu]^9-Ciclosporin | 2.9 | 0.15 |  | 
[MeVal]^5-Ciclosporin | 5.3 | 0.4 |  | 
[MeAla]^6-Ciclosporin | 3.2 | −0.4 |  | 
[Melle]^4-Ciclosporin | < 1 | −0.2 |  | 
[Ethyl-lle]^4-Ciclosporin (peptide) |  |  | 0.1 | 
[MeVal]^4-Ciclosporin | < 1 | 0.1 |  | 
[MeVal]^4-Ciclosporin (peptide) |  |  | 0.1 | 
[Ethyl-lle]^4-Ciclosporin | < 2 | 0.1 |  | 
[8′-hydroxy-MeBmt]^1-Ciclosporin | 1.8 | 0.35 |  | 
[8'-hydroxy-MeBmt]^1-Ciclosporin (peptide) |  |  | 0.35 | 
[Ethyl-Val]^4-Ciclosporin (peptide) |  |  | 0 | 
[MeVal]^5-Ciclosporin (peptide) |  |  | 0.4 | 
[y-hydroxy-MeLeu]^9-Ciclosporin (peptide) |  |  | 0.15 | 
